Measured values as given in patent US20220144839A1, “INDOLE AHR INHIBITORS AND USES THEREOF” (Ikena Oncology, Inc., priority 2018, published 2022).

What follows are compounds tested against T1, AHR (UniProt P35869) (assay: DRE-Luciferase Reporter Assay (Alternate Method), Example 1B). Conditions: concentration which inhibits half of the luciferase activity induced by AHR activating ligand; DRE-luciferase reporter cell line.
T1 sequence (P35869 1-848): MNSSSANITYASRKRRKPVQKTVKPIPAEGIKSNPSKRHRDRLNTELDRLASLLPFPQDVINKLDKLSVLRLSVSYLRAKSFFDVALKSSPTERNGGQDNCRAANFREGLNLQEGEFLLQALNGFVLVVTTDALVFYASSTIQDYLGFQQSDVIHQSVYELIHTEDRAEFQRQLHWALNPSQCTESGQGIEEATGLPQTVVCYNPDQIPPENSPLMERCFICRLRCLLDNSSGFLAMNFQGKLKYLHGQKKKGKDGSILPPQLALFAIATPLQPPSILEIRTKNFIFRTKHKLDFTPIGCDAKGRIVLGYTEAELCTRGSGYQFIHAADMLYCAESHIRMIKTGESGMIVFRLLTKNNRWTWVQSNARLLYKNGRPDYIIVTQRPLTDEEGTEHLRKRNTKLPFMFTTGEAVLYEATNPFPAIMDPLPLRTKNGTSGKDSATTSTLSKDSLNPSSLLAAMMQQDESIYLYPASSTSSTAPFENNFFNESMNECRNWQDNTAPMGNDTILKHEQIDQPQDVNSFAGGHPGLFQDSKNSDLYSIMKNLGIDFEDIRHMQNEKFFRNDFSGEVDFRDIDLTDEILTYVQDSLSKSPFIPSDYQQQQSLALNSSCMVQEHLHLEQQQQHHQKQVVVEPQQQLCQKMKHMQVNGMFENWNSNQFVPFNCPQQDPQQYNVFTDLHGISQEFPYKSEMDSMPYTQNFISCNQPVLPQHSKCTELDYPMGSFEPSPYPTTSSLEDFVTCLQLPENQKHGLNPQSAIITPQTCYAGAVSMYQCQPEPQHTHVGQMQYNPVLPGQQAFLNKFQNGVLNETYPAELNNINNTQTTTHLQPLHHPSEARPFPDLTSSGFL
Format: cell-based
Experimental: AHR binds to Dioxin Responsive Elements (DRE) upstream of genes that it activates. One measure of AHR activity is activation of a reporter gene, such as luciferase, downstream of one or multiple DRE elements. Luciferase activity will reflect activation and inhibition of AHR in the cells expressing his reporter.
Murine Hepa1-6 or Hepa-1c1c7 or other murine cell line with a DRE-luciferase reporter either stably or transiently transfected were plated in media in plates (96-well, 384-well or other plates) and incubated overnight at 37° C. in a C02 incubator or compound and agonist were added at the time of plating. Likewise, human HepG2 or other human cell line with a DRE-luciferase reporter either stably or transiently transfected were plated in media in plates (96-well, 384-well or other plates) and incubated overnight at 37° C. in a C02 incubator or compound and agonist were added at the time of plating.
At the time that cells are plated or following incubation overnight, an AHR activating ligand, such as TCDD, kynurenine, ITE (2-(1H-indole-3-ylcarbonyl)-4-thiazolecarboxylic methyl ester), VAF347, BNF (beta-naphthoflavone), FICZ (6-formylindolo(3,2-b) carbazole or other AHR ligands, was added with or without AHR antagonist.
Cells were incubated for 4, 15 or 24 hours or another time point and then lysed for determination of luciferase activity as a read-out of the AHR activation or inhibition. Luciferase was measured with a commercial kit such as the Promega Luciferase kit or any kit or reagents that provide the luciferin substrate for measuring luciferase activity. The level of luciferase with only activating ligand added was the maximum signal while the luciferase with no ligand was the minimum signal. IC50 values were determined as the concentration which inhibits half of the luciferase activity.

Row | SMILES | IC50 [nM]
1 | CC(C)c1cnn2c(N[C@@H]3CCc4[nH]c(=O)ccc4C3)nc(-c3cncc(F)c3)nc12 [Compound I-36a, (R)-6-((2-(5-Fluoropyridin-3-yl)-8-isopropylpyrazolo[1,5-a][1,3,5]triazin-4-yl)amino)-5,6,7,8-tetrahydroquinolin-2(1H)-one] | > 1500
2 | CC(C)c1cnn2c(N[C@H]3CCc4[nH]c(=O)ccc4C3)nc(-c3cncc(F)c3)nc12 [Compound I-36b, (S)-6-((2-(5-Fluoropyridin-3-yl)-8-isopropylpyrazolo[1,5-a][1,3,5]triazin-4-yl)amino)-5,6,7,8-tetrahydroquinolin-2(1H)-one] | > 1500
3 | CC(C)c1cnn2c(N[C@@H]3CNc4ncccc4C3)nc(-c3cncc(F)c3)nc12 [Compound I-37a, (3S)—N-[2-(5-Fluoro-3-pyridyl)-8-isopropyl-pyrazolo[1,5-a][1,3,5]triazin-4-yl]-1,2,3,4-tetrahydro-1,8-naphthyridin-3-amine] | 500 to 1000
4 | CC(C)c1cnn2c(N[C@H]3CNc4ncccc4C3)nc(-c3cncc(F)c3)nc12 [Compound I-37b, (3R)—N-[2-(5-Fluoro-3-pyridyl)-8-isopropyl-pyrazolo[1,5-a][1,3,5]triazin-4-yl]-1,2,3,4-tetrahydro-1,8-naphthyridin-3-amine] | < 500
5 | Fc1cncc(-c2nc(N[C@@H]3CCc4[nH]c5ccccc5c4C3)n3ncc(N4CCOCC4)c3n2)c1 [Compound I-38, (3R)—N-[2-(5-Fluoro-3-pyridyl)-8-morpholino-pyrazolo[1,5-a][1,3,5]triazin-4-yl]-2,3,4,9-tetrahydro-1H-carbazol-3-amine] | < 500
6 | CC(C)c1cnn2c(NCCCCO)nc(-c3cncc(F)c3)nc12 [Compound I-39, 4-[[2-(5-Fluoro-3-pyridyl)-8-isopropyl-pyrazolo[1,5-a][1,3,5]triazin-4-yl]amino]butan-1-ol] | > 1500
7 | CC(CO)CCNc1nc(-c2cncc(F)c2)nc2c(C(C)C)cnn12 (stereo not shown) [Compound I-40, 4-[[2-(5-Fluoro-3-pyridyl)-8-isopropyl-pyrazolo[1,5-a][1,3,5]triazin-4-yl]amino]-2-methyl-butan-1-ol] | > 1500
8 | O[C@H](c1cnn2c(N[C@@H]3CCc4[nH]c5ccccc5c4C3)nc(-c3cncc(F)c3)nc12)C(F)(F)F [Compound I-41a, (1R)-2,2,2-Trifluoro-1-[2-(5-fluoro-3-pyridyl)-4-[[(3R)-2,3,4,9-tetrahydro-1H-carbazol-3-yl]amino]pyrazolo[1,5-a][1,3,5]triazin-8-yl]ethanol] | < 500
9 | O[C@@H](c1cnn2c(N[C@@H]3CCc4[nH]c5ccccc5c4C3)nc(-c3cncc(F)c3)nc12)C(F)(F)F [Compound I-41b, (1S)-2,2,2-trifluoro-1-[2-(5-fluoro-3-pyridyl)-4-[[(3R)-2,3,4,9-tetrahydro-1H-carbazol-3-yl]amino]pyrazolo[1,5-a][1,3,5]triazin-8-yl]ethanol] | < 500
10 | C[C@H](O)c1cnc2c(N[C@@H]3CCc4[nH]c5ccccc5c4C3)nc(-c3cncc(F)c3)nn12 [Compound I-42a, (1S)-1-[2-(5-Fluoro-3-pyridyl)-4-[[(3R)-2,3,4,9-tetrahydro-1H-carbazol-3-yl]amino]imidazo[2,1-f][1,2,4]triazin-7-yl]ethanol] | < 500
11 | C[C@@H](O)c1cnc2c(N[C@@H]3CCc4[nH]c5ccccc5c4C3)nc(-c3cncc(F)c3)nn12 [Compound I-42b, (1R)-1-[2-(5-Fluoro-3-pyridyl)-4-[[(3R)-2,3,4,9-tetrahydro-1H-carbazol-3-yl]amino]imidazo[2,1-f][1,2,4]triazin-7-yl]ethanol] | < 500
12 | CC(C)c1cnn2c(NCCCO)nc(-c3cncc(F)c3)nc12 [Compound I-43, 3-[[2-(5-Fluoro-3-pyridyl)-8-isopropyl-pyrazolo[1,5-a][1,3,5]triazin-4-yl]amino]propan-1-ol] | > 1500
13 | CC(C)c1cnn2c(N[C@H]3CC[C@H](O)CC3)nc(-c3cncc(F)c3)nc12 [Compound I-44a, 4-[[2-(5-Fluoro-3-pyridyl)-8-isopropyl-pyrazolo[1,5-a][1,3,5]triazin-4-yl]amino]cyclohexanol] | > 1500
